Assay results: BindingDB's records for doi:10.7270/Q2N014XN (Srmlsc, 2007)

Biological target: T1, Diphosphomevalonate decarboxylase (Streptococcus pneumoniae serotype 2 (strain D39 / NCTC 7466), UniProt A0A0H2ZN59)
T1 sequence (A0A0H2ZN59 whole entry): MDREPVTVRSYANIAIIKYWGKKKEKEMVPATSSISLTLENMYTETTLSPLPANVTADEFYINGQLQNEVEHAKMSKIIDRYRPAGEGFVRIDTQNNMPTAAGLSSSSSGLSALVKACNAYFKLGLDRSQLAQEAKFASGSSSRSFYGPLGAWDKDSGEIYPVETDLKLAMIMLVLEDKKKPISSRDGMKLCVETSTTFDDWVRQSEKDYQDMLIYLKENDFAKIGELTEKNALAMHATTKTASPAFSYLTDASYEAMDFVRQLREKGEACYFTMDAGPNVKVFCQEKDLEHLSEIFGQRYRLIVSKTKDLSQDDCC
Experiment: S. pneumoniae DPM-DC inhibitor potency, dose response, biochemical, PK/LDH-coupled NADH fluorescence, hexokinase coupling counter-screen (AID 550)

[1] = inactive by the depositor's call

Structure (SMILES)	IC50	IC50 [1]
COc1ccccc1NC(=O)C1=C(C)N=C2CCCC(=O)C2C1c1ccc2c(c1)OCO2 (stereo unspecified) [4-(1,3-benzodioxol-5-yl)-N-(2-methoxyphenyl)-2-methyl-5-oxo-4,6,7,8-tetrahydro-1H-quinoline-3-carboxamide]	76.3 µM	–
CCc1cc2c(=O)c(-c3nc4ccccc4[nH]3)coc2cc1OC(=O)N1CCOCC1	189 µM	–
CN1CCN(CCNC(=O)c2cc3c(=O)n(C)c4ccccc4c3n2C)CC1 [1,5-dimethyl-N-[2-(4-methyl-1-piperazinyl)ethyl]-4-oxo-2-pyrrolo[3,2-c]quinolinecarboxamide]	751 µM	–
Cc1ccc(-n2c(SCC(=O)NCc3ccco3)nnc2-c2cccnc2)c(C)c1 [MLS000058402]	> 10000 µM	–
CSc1ncc(Cl)c(C(=O)Nc2nnc(SC)s2)n1 [5-chloranyl-2-methylsulfanyl-N-(5-methylsulfanyl-1,3,4-thiadiazol-2-yl)pyrimidine-4-carboxamide]	> 10000 µM	–
CCc1c(C)c(C#N)c2nc3ccccc3n2c1Nc1c(C)n(C)n(-c2ccccc2)c1=O [1-[(1,5-dimethyl-3-oxidanylidene-2-phenyl-pyrazol-4-yl)amino]-2-ethyl-3-methyl-pyrido[1,2-a]benzimidazole-4-carbonitrile]	> 10000 µM	–
Cc1ccc(-c2cc(C(F)(F)F)n3ncc(C(=O)NCc4ccco4)c3n2)cc1 [MLS000109298]	–	59.2 µM
COC(=O)c1[nH]c2cccc(OC)c2c1NC(=O)CCN1CCN(c2ccccc2OC)CC1 [MLS000040529]	27.4 µM	–
COc1cc2c(cc1OC)CN(C(=O)CSc1nnc3scc(-c4ccccc4)n13)CC2 [1-(6,7-dimethoxy-3,4-dihydro-1H-isoquinolin-2-yl)-2-[(5-phenyl-3-thiazolo[2,3-c][1,2,4]triazolyl)thio]ethanone]	584 µM	–
Cc1cccc(C)c1NC(=O)C(c1ccccc1)N1CCN(C(=O)c2ccco2)CC1 (stereo unspecified) [MLS000086418]	> 10000 µM	–
CCn1c(SCC(=O)Nc2cccc(C(C)=O)c2)nnc1C(C)C [MLS000073205]	> 10000 µM	–
CC(C)c1nc2oc3c(NCc4ccccn4)ncnc3c2c2c1COC(C)(C)C2 [MLS000084035]	813 µM	–
CCC(=O)Oc1ccc2c(C)cc(=O)oc2c1C [(4,8-dimethyl-2-oxidanylidene-chromen-7-yl) propanoate]	–	29.9 µM
COC(=O)c1cc(NCc2c(F)cccc2Cl)ccc1N1CCOCC1 [5-[(2-chloro-6-fluoro-benzyl)amino]-2-morpholino-benzoic acid methyl ester]	80.4 µM	–
O=C(Nc1ccc2nc(-c3cccs3)c(-c3cccs3)nc2c1)N1CCOCC1 [MLS000050299]	25.8 µM	–
N#Cc1c(NCCCO)nc(NCc2ccccc2)c2c1CCN(Cc1ccccc1)C2 [3-(3-hydroxypropylamino)-7-(phenylmethyl)-1-[(phenylmethyl)amino]-6,8-dihydro-5H-2,7-naphthyridine-4-carbonitrile]	39.1 µM	–
Nc1c(C(=O)NCCN2CCOCC2)c2nc3ccccc3nc2n1-c1ccc2c(c1)OCO2 [2-amino-1-(1,3-benzodioxol-5-yl)-N-(2-morpholin-4-ylethyl)pyrrolo[3,2-b]quinoxaline-3-carboxamide]	87.4 µM	–
COc1cc(C(=O)Nc2ccc3c(c2)OCO3)ccc1-n1cnnn1 [MLS000073665]	> 10000 µM	–
COC(=O)c1ccccc1NC(=O)c1ccc2c(c1)C(=O)N(Cc1ccco1)C2=O [2-[[2-(2-furfuryl)-1,3-diketo-isoindoline-5-carbonyl]amino]benzoic acid methyl ester]	53.9 µM	–
COc1cc(NC(=O)c2ccco2)c(OC)cc1NC(=O)CCC(=O)Nc1cc(C)ccc1C [MLS000072545]	> 10000 µM	–
CN(C)C(=O)N1CCC(C(=O)NCc2cccs2)CC1 [1-N,1-N-dimethyl-4-N-(thiophen-2-ylmethyl)piperidine-1,4-dicarboxamide]	> 10000 µM	–

Structure (SMILES)	IC50	IC50 [1]
CCN(CC)CCCN(Cc1cc2cc3c(cc2nc1O)OCCO3)C(=O)Nc1ccccc1 [SMR000004152]	> 10000 µM	–
Cc1cc(=O)oc2ccc(OCC(=O)N3CCC(C)CC3)cc12 [4-methyl-6-[2-(4-methyl-1-piperidinyl)-2-oxoethoxy]-1-benzopyran-2-one]	213 µM	–
COc1cccc(C(=O)Nc2ccc(NC(=O)C(C)C)nc2)c1 [3-methoxy-N-[6-(2-methylpropanoylamino)pyridin-3-yl]benzamide]	> 10000 µM	–
CCOC(=O)c1cc2c(=O)n(C)c3ccccc3c2s1 [4-keto-5-methyl-thieno[3,2-c]quinoline-2-carboxylic acid ethyl ester]	> 10000 µM	–
FC(F)(F)c1cc(-c2ccco2)nc(-n2nnc3ccccc32)n1 [1-[4-(2-furanyl)-6-(trifluoromethyl)-2-pyrimidinyl]benzotriazole]	11.2 µM	–
COc1cccc2cc3c(=O)n(-c4ccccc4)nc-3oc12 [8-methoxy-2-phenyl-3-[1]benzopyrano[2,3-c]pyrazolone]	> 10000 µM	–
O=C(Nc1ccc(N2CCCCC2)cc1)c1cccnc1 [MLS000074324]	> 10000 µM	–
CCOc1ccc(-c2nnc(-c3ccncc3)o2)cc1 [2-(4-ethoxyphenyl)-5-pyridin-4-yl-1,3,4-oxadiazole]	52.9 µM	–
Nc1c(C(=O)NC2CCCC2)sc2nc(-c3cccs3)ccc12 [3-Amino-6-thiophen-2-yl-thieno[2,3-b]pyridine-2-carboxylic acid cyclopentylamide]	172 µM	–
COc1ccc(-c2nn3c(-c4ccco4)nnc3s2)cc1OC [6-(3,4-dimethoxyphenyl)-3-(2-furanyl)-[1,2,4]triazolo[3,4-b][1,3,4]thiadiazole]	235 µM	–
Cc1occc1C(=O)Nc1nnc(C(F)(F)F)s1 [2-methyl-N-[5-(trifluoromethyl)-1,3,4-thiadiazol-2-yl]-3-furamide]	> 10000 µM	–
Cc1cccc2cc(CN(Cc3ccco3)S(=O)(=O)c3ccc4c(c3)OCCO4)c(=O)[nH]c12 [N-(furan-2-ylmethyl)-N-[(8-methyl-2-oxidanylidene-1H-quinolin-3-yl)methyl]-2,3-dihydro-1,4-benzodioxine-6-sulfonamide]	> 10000 µM	–
OCCNc1ncnc2c1c(-c1ccccc1)c(-c1ccccc1)n2Cc1ccco1 [2-[[7-(2-furanylmethyl)-5,6-diphenyl-4-pyrrolo[2,3-d]pyrimidinyl]amino]ethanol]	> 10000 µM	–
COc1cccc(C=Nn2c(C)nnc2C)c1OC [(2,3-dimethoxybenzylidene)-(3,5-dimethyl-1,2,4-triazol-4-yl)amine]	> 10000 µM	–
Cc1cc(C)n2nc3nc(N4CCCCC4)nc(-c4ccco4)c3c2n1 [4-(2-furyl)-6,8-dimethyl-2-piperidin-1-ylpyrimido[4',5':3,4]pyrazolo[1,5-a]pyrimidine]	111 µM	–
Cc1coc2cc3oc(=O)c4c(c3cc12)CCC4 [MLS000054228]	52.9 µM	–
O=C1C(Cl)=C(NCC2CCCO2)C(=O)N1Cc1ccccc1 (stereo unspecified) [1-Benzyl-3-chloro-4-[(tetrahydro-furan-2-ylmethyl)-amino]-pyrrole-2,5-dione]	> 10000 µM	–
N#C/C(=C\C1CC=CCC1)c1nc2ccccc2[nH]1 (stereo unspecified) [(E)-2-(1H-benzimidazol-2-yl)-3-cyclohex-3-en-1-ylprop-2-enenitrile]	> 10000 µM	–
CCN(CC)c1nc2ccccc2n2cnnc12	> 10000 µM	–
CCOc1ncccc1C(=O)Nc1ccc2c(C)cc(=O)oc2c1 [2-ethoxy-N-(2-keto-4-methyl-chromen-7-yl)nicotinamide]	> 10000 µM	–
